For experiment [1], the target named is T1, GfsA (Aspergillus fumigatus, UniProt B0YDN6).
T1 construct: gene AFUB_096220; soluble catalytic domain, residues 43-537 without transmembrane segment; N-terminal 6xHis-tag (pET15b); E. coli Rosetta-gami B (DE3); 58 kDa; homodimer (120 kDa by gel filtration); GT31
As to the kind of experiment: X-ray crystal structure, […] A. It counts as binding. The settings on record: crystal with UDP and Mn2+ soaked with 50 mM pNP-Galf, pNP group not resolved, only Galf modelled; acceptor site, D335 and D360.

Experiment [2] deals with GfsA (UDP-α-D-galactofuranose: β-galactofuranoside β-(1→5)-galactofuranosyltransferase) from Aspergillus fumigatus, soluble catalytic domain, residues 43–537 (Aspergillus fumigatus). As to the kind of experiment: SEC; gel filtration chromatography of GfsA purified with Ni-agarose; broad single peak, estimated 120 kDa against 58 kDa for the monomer.

These results are taken from PMC11538602, “Substrate binding and catalytic mechanism of UDP-α-D-galactofuranose: β-galactofuranoside β-(1→5)-galactofuranosyltransferase GfsA” (PNAS Nexus, 2024).

Regarding `OC[C@@H](O)[C@@H]1O[C@@H](O)[C@H](O)[C@H]1O` [Galf], the “X-ray crystal structure, 2.37 A” value in experiment [1] was “Galf, was present within the depression and hydrogen bonded with D335 and D360”.

Broadly, the stoichiometry N is a count of units in the complex or per binding partner. On to “GfsA (UDP-α-D-galactofuranose: β-galactofuranoside β-(1→5)-galactofuranosyltransferase) from Aspergillus fumigatus, soluble catalytic domain, residues 43–537 (enzyme)”, for which the stoichiometry N in experiment [2] is 2.
